Here are results for two molecules from patent publication US10548829B2, “Oral care compositions and methods of use” (priority 2016, dated 2020).

The subject of assay [1] is S. gordonii/S. sobrinus. Kind of assay: Growth inhibition (OD610), co-culture. The class given is cell-based, S. gordonii and S. sobrinus. The protocol: (§1) Further characterization was performed on planktonic oral microbes; Streptococcus sobrinus (Cariongenic—strain-SL1[CCM 6070, CNCTC 9/89] (ATCC cat. #33478), Streptococcus gordonii (Arginolytic—strain V288 (ATCC cat. #35105), Actinomyces viscosus) as well late colonizer (Gram −), pathogenic Aggregatibacter actinomycetemcomitans. All microbes were grown in their respective culture media: Streptococcus sobrinus and Streptococcus gordonii in BHI broth (BD, cat #237500), Aggregatibacter actinomycetemcomitans in BHI broth supplemented with 0.5% Yeast Extract (BD, cat #210941) and Actinomyces viscosus in Trypticase Soy Broth (BD, cat #211768) supplemented with 0.5% Yeast Extract (BD, cat #210941). Bacteria were cultured overnight in 37° C., 5% CO2 in approximately 20 ml of the appropriate culture broth. The following day, the OD610 was determined and solutions were diluted to 0.2 for the assay.
(§2) Test samples (Naringin, Naringin:Zinc complex and Naringin+Zinc Acetate (combination)) were prepared as a 100 mM stock solution followed by 2 fold serial dilution in 100% DMSO. Triclosan (positive control) was prepared as a 10% stock in 100% EtOH and 3 fold serial dilutions were done in 100% EtOH. […]
(§3) After approximately 12-13 hours of treatment, the plate was read at 610 nm using an Envision plate reader (PerkinElmer, Waltham, Mass.). The % inhibition relative to control was determined as follows: […]

For assay [2], the system named is Streptococcus sobrinus. The experiment in a line: Growth inhibition (OD610), single culture. The class given is cell-based. The protocol: (§4) Single species of Streptococcus gordonii (S. gordonii, S.g) strain V288 (ATCC #35105), Streptococcus sobrinus (S. sobrinus, S.$) strain SL1[CCM 6070, CNCTC 9/89] (ATCC #33478), or Aggregatibacter actinomycetemcomitans were analyzed. Also, a mixed culture containing Actinomyces viscosus (A. viscosus, A.v) strain (ATCC, #43146), Lactobacillus casei (L. casei, L.c) strain (ATCC #334), Streptococcus oralis (S. oralis, S. o) strain (ATCC #35037), Fusobacterium nucleatum (F. nucleatum, F. n) strain (ATCC #10953), and Veilonella parvula (V. parvula, V. p) strain (ATCC #17745) was also analyzed for growth inhibition/toxicity activity. Bacteria were cultured overnight in approximately 20 ml of BHI broth (BD, cat #237500) or maintained in a specialized complex modified BHI II medium in a continuous culture chemostat at 37° C. respectively. The following day, the OD610 were determined and solutions diluted to an OD610 of 0.2 or 0.1 respectively for the assay.
(§5) Triclosan (positive control) was prepared as a 10% stock in 100% EtOH and 3 fold serial dilutions were performed in 100% EtOH. An appropriate amount of the diluted samples was then transferred into a 96 well clear plate such that the resulting final concentration of the test samples ranged from either a 2 mM or 4 mM (highest concentration) to 0.0078 mM or 0.0156 mM (lowest concentration respectively) in 2% DMSO in 100 μl media per well. Triclosan (TCN) ranged from 0.01% to 1.67e-6% in 1% EtOH. For Zinc acetate, in order to mimic the 2:1 molar ratio (ligand:Zinc) in the Naringin:Zinc complex, the final concentration ranged from 0.7 mM to 0.0027 mM for samples with 2 mM as the highest concentration and 1.33 mM to […] for samples with 4 mM as the highest concentration in 2% DMSO. Next, 100 μl of bacterial culture at OD610 0.2 were introduced to the wells with the test samples. The wells were thoroughly mixed and incubated at 37° C. overnight. The plates were read using an Envision plate reader (PerkinElmer, Waltham, Mass.) at 610 nm.
(§6) The IC50 for the complex, Product 5, was determined for Streptococcus gordonii (S. gordonii), Streptococcus sobrinus (S. sobrinus), Aggregatibacter actinomycetemcomitans (A. actinomycetemcomitans), and also for the mixed bacterial culture. […] Triclosan (TCN) was included as a positive control for bacterial inhibition.
as §1
(§7) Triclosan (positive control) was prepared as a 10% stock in 100% EtOH and 3 fold serial dilutions were done in 100% EtOH. […] For Naringin+Zinc combination, while the highest total overall concentration was 2 mM, the exact concentration was Naringin (1.3 mM) and Zinc Acetate (0.7 mM) due to the compositions 2:1 molar ratio. For Zinc Acetate, in order to mimic the 2:1 ratio (ligand:Zinc) composition as in the complex, the final concentration ranged from 0.7 mM to 0.0027 mM in 2% DMSO.
(§8) A 100 μl aliquot of bacterial culture at OD610 0.2 were introduced to the wells with the test samples. The wells were thoroughly mixed and plates incubated overnight in a 37° C. incubator with or without 5% CO2 depending upon the bacterial species.

For assay [3], the system named is Streptococcus gordonii. The experiment in a line: Growth inhibition (OD610), single culture. The class given is cell-based. The protocol:
as §4, §5, §6, §1, §7, §8

Assay [4] relates to Aggregatibacter actinomycetemcomitans. Kind of assay: Growth inhibition (OD610), single culture. To be noted: A. actinomycetemcomitans. The class given is cell-based. The protocol: as §4, §5, §6, §1, §7, §8
The subject of assay [5] is Actinomyces viscosus. The experiment in a line: Growth inhibition (OD610), single culture. The class given is cell-based. To be noted: A. viscosus. The protocol: as §1, §2, §3
Assay [6] relates to A. actinomycetemcomitans/S. sobrinus. Kind of assay: Growth inhibition (OD610), co-culture. The class given is cell-based, A. actinomycetemcomitans and S. sobrinus.
The test system of assay [7] is S. sobrinus/A. viscosus. The experiment in a line: Growth inhibition (OD610), co-culture. The class given is cell-based, S. sobrinus and A. viscosus. On the procedure:
as §1, §2, §3

Assay [8] concerns planktonic oral bacterial species (S. sobrinus, S. gordonii, A. actinomycetemcomitans, A. viscosus, mixed cultures). The experiment in a line: Growth inhibition, summary statements over the single, co- and mixed cultures tested. The class given is cell-based, oral bacteria. The conditions noted are these: for inhibition of single species, co-cultures and mixed cultures (in words): concentrations of Tables 7-12. The protocol:
as §4, §5, §6, §1, §7, §8

Where [9] appears, read: 0.5 mM (combination 0.5 mM total).

SMILES strings stand for the structures.

In the case of `CC(=O)[O-].CC(=O)[O-].[Zn+2]` [Zinc Acetate alone, Zinc (II) Acetate], the % Inhibition (as a rule, the drop in the measured response relative to a control, in per cent) was 1.55 ± 0.24% in assay [1] (0.175 mM); −1.05 ± 3.10% in assay [2] (S. sobrinus, 0.175 mM); 13.51 ± 10.18% in assay [3] (S. gordonii, 0.175 mM); 29.24 ± 0.42% in assay [4] (0.175 mM); −1.84 ± 5.86% in assay [5] (0.175 mM); 6.58 ± 5.36% in assay [6] (0.175 mM). In addition, the “% Inhibition” value in assay [7] (0.175 mM) is recorded as 2.46 ± 6.58%. In addition, the IC50 in assay [2] (Streptococcus sobrinus, overnight at 37° C., read-out: IC50) was 290 ± 40 µM; in assay [3] (Streptococcus gordonii, overnight at 37° C., read-out: IC50), 300 ± 20 µM; in assay [8] (S. sobrinus, S. gordonii, A. actinomycetemcomitans and mixed chemostat cultures, read-out: concentration that inhibited 50% of the bacterial growth (IC50), range over cultures tested), 250 to 1730 µM. In addition, the “IC50 range over cultures tested, corresponding ppm” value in assay [8] (S. sobrinus, S. gordonii, A. actinomycetemcomitans and mixed chemostat cultures) is reported as 45.9-317.5 ppm. Moreover, in assay [8], the “inhibition of single species, co-cultures and mixed cultures (in words)” value is recorded as “little to no detectable inhibition”.
For the molecule `C[C@@H]1O[C@@H](O[C@H]2[C@H](Oc3cc(O)c4c(c3)O[C@H](c3ccc(O)cc3)CC4=O)O[C@H](CO)[C@@H](O)[C@@H]2O)[C@H](O)[C@H](O)[C@H]1O` [Naringin], the inhibition (as a rule, the change of the read-out against control, counted positive when it falls) at 500 µM is -6.84 ± 1.19% in assay [1] (setting [9]); -2.64 ± 2.54% in assay [2] (Streptococcus sobrinus, S. sobrinus, 0.5 mM (combination 0.325 mM + 0.175 mM, 0.5 mM total)); 0.96 ± 2.82% in assay [3] (Streptococcus gordonii, S. gordonii, 0.5 mM (combination 0.325 mM + 0.175 mM, 0.5 mM total)); 5.01 ± 1.69% in assay [4] (Aggregatibacter actinomycetemcomitans, 0.5 mM (combination 0.325 mM + 0.175 mM, 0.5 mM total)); -3.5 ± 4.1% in assay [5] (Actinomyces viscosus, 0.5 mM (combination 0.325 mM + 0.175 mM, 0.5 mM total)); 0.33 ± 3.48% in assay [6] (setting [9]). Moreover, the inhibition at 500 µM in assay [7] (setting [9]) was -3.79 ± 7.15%. For the same molecule, in assay [8] (all concentrations tested, cultured alone or as co-cultures), the “antimicrobial effect on bacterial species tested (in words)” value is given as “did not show detectable antimicrobial effect”. Further, the “inhibition of single species, co-cultures and mixed cultures (in words)” value in assay [8] was “little to no detectable inhibition”.
